From PMC11995211, “Design, Synthesis, and Evaluation of a New Fluorescent Ligand for the M2 Muscarinic Acetylcholine Receptor” (ACS Medicinal Chemistry Letters, 2025) come the findings set out here.

Each structure is given as a SMILES string.

One data set deals with T1, hM2R (Homo sapiens, UniProt P08172).
T1 construct: expressed in transfected cells; host or cells: CHO cell membranes
T1 sequence (P08172 1-466): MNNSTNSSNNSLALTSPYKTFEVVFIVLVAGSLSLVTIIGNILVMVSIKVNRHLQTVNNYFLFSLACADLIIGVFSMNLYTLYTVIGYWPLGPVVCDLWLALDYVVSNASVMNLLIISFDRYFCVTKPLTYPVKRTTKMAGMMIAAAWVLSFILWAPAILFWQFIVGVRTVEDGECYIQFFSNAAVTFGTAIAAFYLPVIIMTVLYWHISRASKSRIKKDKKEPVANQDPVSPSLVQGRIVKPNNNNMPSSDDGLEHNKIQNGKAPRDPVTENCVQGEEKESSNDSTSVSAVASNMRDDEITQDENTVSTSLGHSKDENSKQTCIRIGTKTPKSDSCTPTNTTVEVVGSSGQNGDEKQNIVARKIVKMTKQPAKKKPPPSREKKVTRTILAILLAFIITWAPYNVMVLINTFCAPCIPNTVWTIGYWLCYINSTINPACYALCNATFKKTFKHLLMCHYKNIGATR
Kind of data set: Radioligand competition binding, [3H]-scopolamine (N-methyl), CHO cell membranes, hM2R. The note with it: mean ± SD, n = 3; membranes from CHO cells transfected with hM2R; read-out: Receptor Ki M2.

Another data set has as its target T2, hM3R (Homo sapiens, UniProt P20309).
T2 construct: expressed in transfected cells; host or cells: CHO cell membranes
Kind of data set: Radioligand competition binding, [3H]-scopolamine (N-methyl), CHO cell membranes, hM3R. The following applies: mean ± SD, n = 3; membranes from CHO cells transfected with hM3R; read-out: Receptor Ki M3. For orientation: In a radioligand displacement assay an active substance lowers the binding of a labelled ligand.

A further data set addresses T3, HA–M2R (Homo sapiens, UniProt P08172).
T3 sequence (P08172 1-466): T1 sequence (P08172 1-466)
The data set can be described thus: STED nanoscopy labeling of living HEK 293T cells. The note with it: 300 nM. Type of data set: cell-based. An excerpt:
As STED microscopy is used for the deeper investigation of cellular processes even at the subcellular level, we challenged the fluorescent probe 33 in STED nanoscopy (Figure ). For STED, we used the same transfected cells as in the case of two-photon microscopy. Using the STED function and the available largest magnification objective, we observed improvement of optical resolution.
Figure S7. […] Scale bar:
20 μm. Representative images of two independent experiments are shown.
Figure S8. […] Scale bar:
50 μm. Representative images of two independent experiments are shown.
Confocal and STED microscopy
Confocal and STED images were acquired using a Leica TCS SP8 STED 3× inverse […]
well IBIDI chamber slides. The samples were scanned with a Leica HC PL Fluotar 20x/0.55 objective and a PMT detector. A 488 nm laser was used for the excitation of the fluorescent dye OG488 for the confocal imaging, and the spectral detection parameters were 500-550 nm.
(1 picture or pasted object on this page, not shown here)
Simultaneous transmission light imaging was used to detect the cells. For STED imaging, we used the same excitation laser and a Leica HC PL APO 100×/1.40 oil immersion objective and a Leica HyD detector, which was completed with a 660 nm STED (1.5 W, continuous wave) laser for depletion (at 1.17–2.48 × 109 W mm−2 nominal intensity with an output laser power of 1.2 W/32 nm × 32 nm pixel size). […]

The nature of data set [1]: Photophysical measurements and photostability. Type of data set: physicochemical. On the procedure: Next, we investigated the photophysical properties of the fluorescent probe 33. In acetonitrile, the probe has an absorption maximum at 520 nm and a fluorescence maximum at 547 nm with a Stokes shift of 27 nm. […] The dye was pH sensitive, with intensity increasing at higher pH. Following a literature procedure, we examined the effect of protein (BSA) on the ligand. […]
Photophysical Measurements
Absorbance measurements were performed using a Jasco V-750 Spectrophotometer standard cell quartz cuvette with 1 cm light path length, 1 nm bandwidth, 400 nm/min recording speed) operating at 21 °C. The fluorescence measurements were carried out on a Jasco FP8300 spectrofluorometer in a standard cell quartz cuvette (1 cm light path length). Both the excitation and emission slit widths were both set to 2.5 nm, and the scanning speed was 400 nm/min. Pure solvents were used for blank correction. Absorbance spectra and excitation spectra were recorded in the range of […]. For the emission spectra, we excited the sample at the excitation maximum, and measured it from excitation maximum plus 10 nm to 800 nm.
Quantum yields were calculated by recording the fluorescence spectra of a series of different concentrations. The gradient of the integrated fluorescence intensities plotted against absorbance at the excitation wavelength was used for the calculation of the quantum yields:
The compound 33 was excited at 360 nm, OG488-NHS was used as reference (Φwater = […]
Solvent screening measurements were conducted using 5 μM solutions of the fluorescent probe 33 in various solvents, including acetonitrile, 1,4 -dioxane, water, toluene, dichloromethane, tetrahydrofuran, ethanol, PBS buffer (pH=5; 7; 7.4, 9), PBS buffer (pH=7.4) with 1% BSA, and ethyl acetate. Photostability measurements were performed with 5 μM solution of in PBS buffer (pH=7). The samples were exposed to a 4 W light-emitting diode emitting at 450 nm, and emission spectra were recorded.

The target of the next data set is T4, GLuc–M2R (Homo sapiens, UniProt P08172).
T4 construct: expressed in transfected cells
T4 sequence (P08172 1-466): T1 sequence (P08172 1-466)
Kind of data set: BRET-based ligand binding on HEK 293T cells expressing GLuc–M2R.

T2 sequence (P20309 whole entry): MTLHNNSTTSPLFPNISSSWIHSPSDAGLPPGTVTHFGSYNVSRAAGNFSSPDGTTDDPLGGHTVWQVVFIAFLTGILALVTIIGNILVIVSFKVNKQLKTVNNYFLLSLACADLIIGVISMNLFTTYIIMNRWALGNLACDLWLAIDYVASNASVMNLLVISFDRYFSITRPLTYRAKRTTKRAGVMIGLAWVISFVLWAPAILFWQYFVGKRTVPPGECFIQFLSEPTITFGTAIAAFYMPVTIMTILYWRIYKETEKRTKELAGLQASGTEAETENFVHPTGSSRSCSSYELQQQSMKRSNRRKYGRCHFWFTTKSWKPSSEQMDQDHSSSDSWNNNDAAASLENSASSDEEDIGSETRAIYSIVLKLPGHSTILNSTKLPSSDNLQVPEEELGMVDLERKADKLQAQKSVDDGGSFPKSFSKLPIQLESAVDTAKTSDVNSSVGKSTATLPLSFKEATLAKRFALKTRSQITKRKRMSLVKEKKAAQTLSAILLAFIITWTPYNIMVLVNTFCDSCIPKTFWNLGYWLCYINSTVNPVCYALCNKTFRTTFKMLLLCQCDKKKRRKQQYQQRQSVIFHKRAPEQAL

With `O=C(CCOCCOCCNC(=O)c1ccc(-c2c3cc(F)c(=O)cc-3oc3cc(O)c(F)cc23)c(C(=O)O)c1)NCCOCCOCCNc1ccccc1C(=O)N1CCC(N2CCC(Cc3ccc(S(=O)(=O)c4cccc(Cl)c4)cc3)CC2)CC1` [Compound 33], the Ki – broadly, the equilibrium dissociation constant of an inhibitor or competing ligand from its target – at hM2R was determined as 0.0024 ± 0.0004 µM. In addition, the Ki at hM3R turned out to be 55.6 ± 3.25 µM. The “signal location in HA–M2R-expressing cells” value on HA–M2R (living HEK 293T) was “concentrated in the membranes of cells”. For the same molecule, the “fluorescence in control (M2R-negative) cells” value at HA–M2R (non-transfected HEK 293T) is “fluorescence is lacking”. Moreover, the “photostability: irradiation time to half of the original fluorescence intensity” value in data set [1] (PBS (pH 7), 5 μM, 4 W, 450 nm light) stood at 10 min. For the same molecule, in data set [1] (in acetonitrile), the Stokes shift was found to be 27 nm, the absorption maximum is reported as 520 nm, the brightness turned out to be 8501 and the fluorescence maximum is 547 nm. For the same molecule, the “molar extinction coefficient (ε)” value in data set [1] (in acetonitrile) is 42504.9 M^–1 cm^–1. The “fluorescence quantum yield (Φf)” value in data set [1] (in acetonitrile, OG488-NHS as reference) amounted to 0.20. Further, on GLuc–M2R (1-hour treatment, nonspecific with 100 μM atropine, read-out: dissociation constant (KD), equilibrium BRET-based ligand binding), the Kd – broadly, the constant that tells how readily two partners part at equilibrium – was 0.119 µM. Besides, the kon on GLuc–M2R (BRET-based kinetic ligand binding, read-out: association rate constant) is 8060 M⁻¹ s⁻¹. Moreover, at GLuc–M2R (read-out: dissociation rate constant), the koff worked out at 0.000867 s⁻¹.
